US20240124439A1, “Pyrido[2,3-D]Imidazole Derivatives and Their Use As Inhibitors of ITK for the Treatment of Skin Disease” (Pfizer Inc., priority 2020, published 2024)

Columns and labels:
[1] = tested on: activated CD4+ human T-cells (IL-2); test: IL-2 inhibition in supernatants from activated CD4+ human T-cells (cisbio HTRF); format: cell-based; details: T-cell; CD3/CD28-activated CD4+ human T cells, ImmunoCult stimulation 20 to 24 hrs; geometric mean of count n
How it was run: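 Primary human CD4+ T cells activated with CD3/CD28 for 3 days and expanded to 7-9 days total, plated at 30,000 cells/well. Cells preincubated 15 min with compound, then stimulated with ImmunoCult (1:50 final) for 20-24 h at 37° C. Supernatant IL-2 measured by HTRF (665/615 nm); IC50 from four-parameter logistic fit.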

[2] = target: Tropomyosin Receptor Kinase A (TRKA), NTRK1 enzyme (Homo sapiens (Human), UniProt P04629); test: TRKA (NTRK1) ThermoFisher Z'-LYTE enzyme assay; format: biochemical; details: test compound 1 uM, ATP 1 mM; arithmetic mean of count n
Protocol: TRKA, also known as neurotrophic tyrosine kinase receptor type 1 (NTKR1) activity was determined by measuring the effect of a test compound on the activity against the NTRK1 enzyme using the ThermoFisher Z′-LYTE Assay fluorescence-based coupled enzyme format (www.thermofisher.com/selectscreen). Test compounds were screened at a fixed concentration of 1 uM and the % inhibition was determined compared to controls at a fixed ATP concentration of 1 mM. The resulting effect value for the tested compound was compared to the assay controls to determine the % inhibition (%).

[3] = target: IL-2-Inducible T-Cell Kinase (ITK) (Homo sapiens (Human), UniProt Q08881); test: ITK enzyme assay (IL-2-inducible T-cell kinase activity); format: biochemical; details: geometric mean of count n
How it was run: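 Full-length N-Flag/C-His human ITK, pre-incubated 30 min at RT with compound. Reaction in HEPES pH 7.5 buffer with MgCl2, glutathione, gelatin and Brij-35, started with BTK peptide substrate, 60 min at RT. EDTA stop, PT66/APC TR-FRET detection overnight; IC50 fitted by four-parameter logistic.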

Sequence of Tropomyosin Receptor Kinase A (TRKA), NTRK1 enzyme (P04629 33-796): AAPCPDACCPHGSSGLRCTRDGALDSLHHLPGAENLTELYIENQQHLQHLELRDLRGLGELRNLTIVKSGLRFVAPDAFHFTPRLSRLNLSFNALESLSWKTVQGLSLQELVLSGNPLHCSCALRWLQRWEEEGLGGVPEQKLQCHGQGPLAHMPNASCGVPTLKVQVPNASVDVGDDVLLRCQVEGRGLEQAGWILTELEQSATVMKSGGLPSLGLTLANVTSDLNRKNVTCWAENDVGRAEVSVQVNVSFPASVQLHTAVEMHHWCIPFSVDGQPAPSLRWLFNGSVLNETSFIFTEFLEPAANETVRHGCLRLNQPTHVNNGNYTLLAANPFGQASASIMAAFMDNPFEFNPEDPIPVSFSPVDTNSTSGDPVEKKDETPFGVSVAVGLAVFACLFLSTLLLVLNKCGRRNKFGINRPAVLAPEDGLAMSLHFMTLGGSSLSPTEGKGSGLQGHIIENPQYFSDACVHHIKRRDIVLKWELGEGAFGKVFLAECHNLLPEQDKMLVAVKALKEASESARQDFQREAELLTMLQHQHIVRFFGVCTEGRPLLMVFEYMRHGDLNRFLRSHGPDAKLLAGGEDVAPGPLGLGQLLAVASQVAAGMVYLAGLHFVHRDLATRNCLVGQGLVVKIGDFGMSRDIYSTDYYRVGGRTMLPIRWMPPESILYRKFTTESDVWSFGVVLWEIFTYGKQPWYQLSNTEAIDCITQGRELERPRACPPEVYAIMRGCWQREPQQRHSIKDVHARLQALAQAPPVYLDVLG
Sequence of IL-2-Inducible T-Cell Kinase (ITK) (Q08881 whole entry): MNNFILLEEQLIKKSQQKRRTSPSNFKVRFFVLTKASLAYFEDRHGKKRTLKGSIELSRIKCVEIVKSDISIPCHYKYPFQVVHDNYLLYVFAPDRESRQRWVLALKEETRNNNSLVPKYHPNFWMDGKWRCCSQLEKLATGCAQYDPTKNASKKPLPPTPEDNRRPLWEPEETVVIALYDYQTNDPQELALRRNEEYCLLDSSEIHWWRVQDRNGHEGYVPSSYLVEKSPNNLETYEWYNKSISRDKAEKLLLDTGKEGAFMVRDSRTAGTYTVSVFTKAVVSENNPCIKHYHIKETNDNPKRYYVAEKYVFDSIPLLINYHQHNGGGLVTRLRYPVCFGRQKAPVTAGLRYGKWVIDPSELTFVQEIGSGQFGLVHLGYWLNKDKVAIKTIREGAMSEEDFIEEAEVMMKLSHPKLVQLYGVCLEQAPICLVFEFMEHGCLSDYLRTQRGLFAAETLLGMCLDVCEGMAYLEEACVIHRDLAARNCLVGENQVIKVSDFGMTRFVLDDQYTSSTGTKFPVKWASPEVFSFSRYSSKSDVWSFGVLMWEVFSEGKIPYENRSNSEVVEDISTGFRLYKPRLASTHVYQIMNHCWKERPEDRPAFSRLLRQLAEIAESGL

Compound	IC50 [1] [nM]	inhibition at 1 µM [2] [%]	IC50 [3] [nM]
C[C@@H](C(=O)N(C)c1cnc2[nH]c(-c3n[nH]c4c3CCC(C)(C)C4)nc2c1)N1CCOCC1 [Example 14, (S)-N-(2-(6,6-Dimethyl-4,5,6,7-tetrahydro-1H-indazol-3-yl)-3H-imidazo[4,5-b]pyridin-6-yl)-N-methyl-2-morpholinopropanamide]	157	92	
CCN(C(=O)[C@H](C)C1CCOCC1)c1cnc2[nH]c(-c3n[nH]c4c3CCC(C)(C)C4)nc2c1 [Example 18]	162	97	
C[C@H](C(=O)N(C)c1cnc2[nH]c(-c3n[nH]c4c3C[C@@H]3C[C@]3(C)C4)nc2c1)N1CCOCC1 [Example 26, (R)-N-Methyl-N-(2-((4aS,5aR)-5a-methyl-1,4,4a,5,5a,6-hexahydrocyclopropa[f]indazol-3-yl)-3H-imidazo[4,5-b]pyridin-6-yl)-2-morpholinopropanamide]	631	91	
CC(C)CC(=O)N(C)c1cnc2[nH]c(-c3n[nH]c4c3CCC(C)(C)C4)nc2c1 [Example 102, N-(2-(6,6-Dimethyl-4,5,6,7-tetrahydro-1H-indazol-3-yl)-3H-imidazo[4,5-b]pyridin-6-yl)-N,3-dimethylbutanamide]	749		269
CC(C)C(=O)N(C)c1cnc2[nH]c(-c3n[nH]c4c3CCC(C)(C)C4)nc2c1 [Example 103, N-(2-(6,6-Dimethyl-4,5,6,7-tetrahydro-1H-indazol-3-yl)-3H-imidazo[4,5-b]pyridin-6-yl)-N-methylisobutyramide]	392		104
CN(C(=O)C1(C)CCC1)c1cnc2[nH]c(-c3n[nH]c4c3CCC(C)(C)C4)nc2c1 [Example 104, N-(2-(6,6-Dimethyl-4,5,6,7-tetrahydro-1H-indazol-3-yl)-3H-imidazo[4,5-b]pyridin-6-yl)-N,1-dimethylcyclobutane-1-carboxamide]	517		101
CN(C(=O)C1CCC1)c1cnc2[nH]c(-c3n[nH]c4c3CCC(C)(C)C4)nc2c1 [Example 105, N-(2-(6,6-Dimethyl-4,5,6,7-tetrahydro-1H-indazol-3-yl)-3H-imidazo[4,5-b]pyridin-6-yl)-N-methylcyclobutanecarboxamide]	732		123
CC(C)CCC(=O)N(C)c1cnc2[nH]c(-c3n[nH]c4c3CCC(C)(C)C4)nc2c1 [Example 106, N-(2-(6,6-Dimethyl-4,5,6,7-tetrahydro-1H-indazol-3-yl)-3H-imidazo[4,5-b]pyridin-6-yl)-N,4-dimethylpentanamide]	1090		245
CCC(CC)C(=O)N(C)c1cnc2[nH]c(-c3n[nH]c4c3CCC(C)(C)C4)nc2c1 [Example 107, N-(2-(6,6-Dimethyl-4,5,6,7-tetrahydro-1H-indazol-3-yl)-3H-imidazo[4,5-b]pyridin-6-yl)-2-ethyl-N-methylbutanamide]	1870		564
CCCC(=O)N(C)c1cnc2[nH]c(-c3n[nH]c4c3CCC(C)(C)C4)nc2c1 [Example 108, N-(2-(6,6-Dimethyl-4,5,6,7-tetrahydro-1H-indazol-3-yl)-3H-imidazo[4,5-b]pyridin-6-yl)-N-methylbutyramide]	367		100
CN(C(=O)C1(C)CCOCC1)c1cnc2[nH]c(-c3n[nH]c4c3CCC(C)(C)C4)nc2c1 [Example 109, N-(2-(6,6-Dimethyl-4,5,6,7-tetrahydro-1H-indazol-3-yl)-3H-imidazo[4,5-b]pyridin-6-yl)-N,4-dimethyltetrahydro-2H-pyran-4-carboxamide]	908		421
CN(C(=O)C1CCC(F)(F)CC1)c1cnc2[nH]c(-c3n[nH]c4c3CCC(C)(C)C4)nc2c1 [Example 110, N-(2-(6,6-Dimethyl-4,5,6,7-tetrahydro-1H-indazol-3-yl)-3H-imidazo[4,5-b]pyridin-6-yl)-4,4-difluoro-N-methylcyclohexane-1-carboxamide]	1590		554
CN(C(=O)C1(C)CCCCO1)c1cnc2[nH]c(-c3n[nH]c4c3CCC(C)(C)C4)nc2c1 (stereo not drawn) [Example 112, N-(2-(6,6-Dimethyl-4,5,6,7-tetrahydro-1H-indazol-3-yl)-3H-imidazo[4,5-b]pyridin-6-yl)-N,2-dimethyltetrahydro-2H-pyran-2-carboxamide]	895		234
CN(C(=O)C1CCCC1)c1cnc2[nH]c(-c3n[nH]c4c3CCC(C)(C)C4)nc2c1 [Example 113, N-(2-(6,6-Dimethyl-4,5,6,7-tetrahydro-1H-indazol-3-yl)-3H-imidazo[4,5-b]pyridin-6-yl)-N-methylcyclopentanecarboxamide]	1620		350
CN(C(=O)CC1CCOCC1)c1cnc2[nH]c(-c3n[nH]c4c3CCC(C)(C)C4)nc2c1 [Example 114, N-(2-(6,6-Dimethyl-4,5,6,7-tetrahydro-1H-indazol-3-yl)-3H-imidazo[4,5-b]pyridin-6-yl)-N-methyl-2-(tetrahydro-2H-pyran-4-yl)acetamide]	1510		156
C[C@H](C(=O)N(C)c1cnc2[nH]c(-c3n[nH]c4c3C[C@@H]3C[C@]3(C)C4)nc2c1)N1C[C@H]2CC[C@@H]1CO2 [Example 115]	415		142
C[C@@H](C(=O)N(C)c1cnc2[nH]c(-c3n[nH]c4c3C[C@@H]3C[C@]3(C)C4)nc2c1)N1C[C@H]2CC[C@@H]1CO2 [Example 116, (S)-2-((1R,4R)-2-Oxa-5-azabicyclo[2.2.2]octan-5-yl)-N-methyl-N-(2-((4aS,5aR)-5a-methyl-1,4,4a,5,5a,6-hexahydrocyclopropa[f]indazol-3-yl)-3H-imidazo[4,5-b]pyridin-6-yl)propanamide]	172		18
C[C@H](C(=O)N(C)c1cnc2[nH]c(-c3n[nH]c4c3C[C@@H]3C[C@]3(C)C4)nc2c1)N1CCCCC1 [Example 117, (R)-N-Methyl-N-(2-((4aS,5aR)-5a-methyl-1,4,4a,5,5a,6-hexahydrocyclopropa[f]indazol-3-yl)-3H-imidazo[4,5-b]pyridin-6-yl)-2-(piperidin-1-yl)propanamide]	769		275
C[C@@H](C(=O)N(C)c1cnc2[nH]c(-c3n[nH]c4c3C[C@@H]3C[C@]3(C)C4)nc2c1)N1CCCCC1 [Example 118, (S)-N-Methyl-N-(2-((4aS,5aR)-5a-methyl-1,4,4a,5,5a,6-hexahydrocyclopropa[f]indazol-3-yl)-3H-imidazo[4,5-b]pyridin-6-yl)-2-(piperidin-1-yl)propanamide]	727		243
CC(C(=O)N(C)c1cnc2[nH]c(-c3n[nH]c4c3C[C@@H]3C[C@]3(C)C4)nc2c1)N1C2COCC1C2 (stereo partly drawn) [Example 119, 2-(3-Oxa-6-azabicyclo[3.1.1]heptan-6-yl)-N-methyl-N-(2-((4aS,5aR)-5a-methyl-1,4,4a,5,5a,6-hexahydrocyclopropa[f]indazol-3-yl)-3H-imidazo[4,5-b]pyridin-6-yl)propanamide]	4210		470
CC(C(=O)N(C)c1cnc2[nH]c(-c3n[nH]c4c3C[C@@H]3C[C@]3(C)C4)nc2c1)N1CCCCC1 (stereo partly drawn) [Example 120, N-Methyl-N-(2-((4aS,5aR)-5a-methyl-1,4,4a,5,5a,6-hexahydrocyclopropa[f]indazol-3-yl)-3H-imidazo[4,5-b]pyridin-6-yl)-2]	2340		788
